Test results: BigSolDB 2.1

Cl.N=C(N)Nc1ccc(C(=O)O)cc1
Conditions | solubility (mole fraction)
in ethanol, 294.95 K | 0.00291
in ethanol, 300.05 K | 0.00316
in ethanol, 305.95 K | 0.00343
in ethanol, 310.25 K | 0.00387
in ethanol, 315.25 K | 0.0042
in ethanol, 320.25 K | 0.00478
in ethanol, 325.55 K | 0.00514
in ethanol, 330.65 K | 0.00558
in isopropanol, 296.35 K | 0.0008
in isopropanol, 301.75 K | 0.00106
in isopropanol, 307.55 K | 0.00127
in isopropanol, 312.95 K | 0.00149
in isopropanol, 317.35 K | 0.00158
in isopropanol, 321.35 K | 0.0017
in isopropanol, 325.15 K | 0.00186
in isopropanol, 328.25 K | 0.00201
in methanol, 297.95 K | 0.0118
in methanol, 302.45 K | 0.0128
in methanol, 307.45 K | 0.0143
in methanol, 312.95 K | 0.0155
in methanol, 317.45 K | 0.017
in methanol, 321.25 K | 0.0181
in methanol, 324.85 K | 0.0192
in methanol, 328.55 K | 0.0203
in n-butanol, 293.25 K | 0.00103
in n-butanol, 296.85 K | 0.00124
in n-butanol, 300.05 K | 0.00137
in n-butanol, 303.15 K | 0.00149
in n-butanol, 307.55 K | 0.00163
in n-butanol, 314.75 K | 0.00182
in n-butanol, 320.15 K | 0.00194
in n-butanol, 327.15 K | 0.00216
in n-pentanol, 292.05 K | 0.00042
in n-pentanol, 296.55 K | 0.00071
in n-pentanol, 301.75 K | 0.0008
in n-pentanol, 310.05 K | 0.00096
in n-pentanol, 316.75 K | 0.00103
in n-pentanol, 322.95 K | 0.00114
in n-pentanol, 327.95 K | 0.00121
in n-pentanol, 334.15 K | 0.00136
in n-propanol, 295.05 K | 0.00368
in n-propanol, 300.75 K | 0.00436
in n-propanol, 305.75 K | 0.00495
in n-propanol, 309.95 K | 0.00564
in n-propanol, 314.55 K | 0.00633
in n-propanol, 319.35 K | 0.00716
in n-propanol, 322.85 K | 0.00753
in n-propanol, 327.75 K | 0.00815
in water, 298.05 K | 0.00532
in water, 304.55 K | 0.00685
in water, 309.95 K | 0.00884
in water, 314.85 K | 0.0108
in water, 318.55 K | 0.0129
in water, 323.55 K | 0.0155
in water, 328.85 K | 0.018
in water, 333.65 K | 0.0218
